Counter-ions that a name gives are not always drawn.
system: NCI-H292 lung cancer cells; experiment: FDA drug screening, complete media vs cholesterol-free media with simvastatin (TABLE 2); assay type: cell-based, human; details: NCI-H292 cells, cholesterol-free media with simvastatin 0.04 μM; FDA drug library screen (TABLE 2)

SMILES | Cholesterol-free media + simvastatin (0.04 μM)
O=C(O)CCC(=O)Nc1ccc(S(=O)(=O)Nc2nccs2)cc1 [Succinylsulfathiazole] | 1.231

same assay, conditions: NCI-H292 cells, cholesterol-free media with simvastatin 0.04 μM; cell growth value in FDA drug screen

SMILES | Cholesterol-free media + simvastatin (0.04 μM)
O=C(O[C@H]1CN2CCC1CC2)N1CCc2ccccc2[C@@H]1c1ccccc1 [Solifenacin (hydrochloride)] | 0.865
Cc1c(C(=O)Nc2ccc(N3C[C@@H](C)O[C@@H](C)C3)nc2)cccc1-c1ccc(OC(F)(F)F)cc1 [Sonidegib] | 1.12

same assay, conditions: NCI-H292 cells, complete media; FDA drug library screen (TABLE 2)

SMILES | Complete Media
O=C(O)CCC(=O)Nc1ccc(S(=O)(=O)Nc2nccs2)cc1 [Succinylsulfathiazole] | 1.191

same assay, conditions: NCI-H292 cells, complete media; cell growth value in FDA drug screen

SMILES | Complete Media
O=C(O[C@H]1CN2CCC1CC2)N1CCc2ccccc2[C@@H]1c1ccccc1 [Solifenacin (hydrochloride)] | 0.978
Cc1c(C(=O)Nc2ccc(N3C[C@@H](C)O[C@@H](C)C3)nc2)cccc1-c1ccc(OC(F)(F)F)cc1 [Sonidegib] | 1.188

same assay, conditions: NCI-H292 cells, drug in cholesterol-free media with simvastatin 0.04 μM

SMILES | Cholesterol-free media + simvastatin (0.04 μM)
O=C([O-])CCCc1ccccc1.[Na+] [Sodium 4-phenylbutyrate] | 1.094
CC(C)=CCC/C(C)=C/CC/C(C)=C/CC/C=C(\C)CC/C=C(\C)CCC=C(C)C [Squalene] | 0.9877
Cc1cn([C@H]2C=C[C@@H](CO)O2)c(=O)[nH]c1=O [Stavudine] | 1.022
O=C(O)[C@@H](S)[C@@H](S)C(=O)O [Succimer] | 1.252

same assay, conditions: NCI-H292 cells, drug in complete media

SMILES | Complete Media
O=C([O-])CCCc1ccccc1.[Na+] [Sodium 4-phenylbutyrate] | 0.9051
CC(C)=CCC/C(C)=C/CC/C(C)=C/CC/C=C(\C)CC/C=C(\C)CCC=C(C)C [Squalene] | 0.7931
Cc1cn([C@H]2C=C[C@@H](CO)O2)c(=O)[nH]c1=O [Stavudine] | 0.8293
O=C(O)[C@@H](S)[C@@H](S)C(=O)O [Succimer] | 1.035

same assay, conditions: complete media minus cholesterol-free media + simvastatin (0.04 μM); >0 enhanced anti-cancer activity, about 0 neutral, <0 antagonist

SMILES | Difference
O=C(O)CCC(=O)Nc1ccc(S(=O)(=O)Nc2nccs2)cc1 [Succinylsulfathiazole] | −0.04

same assay, conditions: complete media minus cholesterol-free media + simvastatin; >0 enhanced anti-cancer activity, about 0 neutral, <0 antagonist

SMILES | Difference
O=C(O[C@H]1CN2CCC1CC2)N1CCc2ccccc2[C@@H]1c1ccccc1 [Solifenacin (hydrochloride)] | 0.11
Cc1c(C(=O)Nc2ccc(N3C[C@@H](C)O[C@@H](C)C3)nc2)cccc1-c1ccc(OC(F)(F)F)cc1 [Sonidegib] | 0.07

same assay, conditions: complete media vs cholesterol-free media + simvastatin (0.04 μM); >0 enhanced anti-cancer activity, about 0 neutral, <0 antagonist

SMILES | Difference
O=C([O-])CCCc1ccccc1.[Na+] [Sodium 4-phenylbutyrate] | −0.19
CC(C)=CCC/C(C)=C/CC/C(C)=C/CC/C=C(\C)CC/C=C(\C)CCC=C(C)C [Squalene] | −0.19
Cc1cn([C@H]2C=C[C@@H](CO)O2)c(=O)[nH]c1=O [Stavudine] | −0.19
O=C(O)[C@@H](S)[C@@H](S)C(=O)O [Succimer] | −0.22

system: NCI-H292 lung cancer cells; experiment: FDA drug screening, complete media vs cholesterol-free media without statin (TABLE 1); assay type: cell-based, human; details: Complete minus Cholesterol-free; >0 enhanced anti-cancer activity, about 0 neutral, <0 antagonist

SMILES | Difference
O=C(O)CCC(=O)Nc1ccc(S(=O)(=O)Nc2nccs2)cc1 [Succinylsulfathiazole] | 0.03

same assay, conditions: Complete minus Cholesterol-free; greater than 0 enhanced anti-cancer activity, about 0 neutral, below 0 antagonist

SMILES | Difference
Cc1cn([C@H]2C=C[C@@H](CO)O2)c(=O)[nH]c1=O [Stavudine] | −0.09

same assay, conditions: NCI-H292 cells, FDA drug library screen, cholesterol-free media without statin

SMILES | Cholesterol-free
Cc1cn([C@H]2C=C[C@@H](CO)O2)c(=O)[nH]c1=O [Stavudine] | 0.9921

same assay, conditions: NCI-H292 cells, FDA drug library screen, complete media

SMILES | Complete
Cc1cn([C@H]2C=C[C@@H](CO)O2)c(=O)[nH]c1=O [Stavudine] | 0.8994

same assay, conditions: NCI-H292 cells, cholesterol-free media without statin

SMILES | Cholesterol-free
O=C(O[C@H]1CN2CCC1CC2)N1CCc2ccccc2[C@@H]1c1ccccc1 [Solifenacin (hydrochloride)] | 1.128
O=C(O)[C@@H](S)[C@@H](S)C(=O)O [Succimer] | 1.406

same assay, conditions: NCI-H292 cells, cholesterol-free media without statin, FDA drug library screen

SMILES | Cholesterol-free
O=C([O-])CCCc1ccccc1.[Na+] [Sodium 4-phenylbutyrate] | 0.7629
Cc1c(C(=O)Nc2ccc(N3C[C@@H](C)O[C@@H](C)C3)nc2)cccc1-c1ccc(OC(F)(F)F)cc1 [Sonidegib] | 0.6523
CC(C)=CCC/C(C)=C/CC/C(C)=C/CC/C=C(\C)CC/C=C(\C)CCC=C(C)C [Squalene] | 1.273
O=C(O)CCC(=O)Nc1ccc(S(=O)(=O)Nc2nccs2)cc1 [Succinylsulfathiazole] | 0.852

same assay, conditions: NCI-H292 cells, complete media

SMILES | Complete
O=C(O[C@H]1CN2CCC1CC2)N1CCc2ccccc2[C@@H]1c1ccccc1 [Solifenacin (hydrochloride)] | 0.8222
O=C(O)[C@@H](S)[C@@H](S)C(=O)O [Succimer] | 0.9576

same assay, conditions: NCI-H292 cells, complete media, FDA drug library screen

SMILES | Complete
O=C([O-])CCCc1ccccc1.[Na+] [Sodium 4-phenylbutyrate] | 1.099
Cc1c(C(=O)Nc2ccc(N3C[C@@H](C)O[C@@H](C)C3)nc2)cccc1-c1ccc(OC(F)(F)F)cc1 [Sonidegib] | 0.8188
CC(C)=CCC/C(C)=C/CC/C(C)=C/CC/C=C(\C)CC/C=C(\C)CCC=C(C)C [Squalene] | 1.566
O=C(O)CCC(=O)Nc1ccc(S(=O)(=O)Nc2nccs2)cc1 [Succinylsulfathiazole] | 0.8836

same assay, conditions: complete vs cholesterol-free media; >0 enhanced anti-cancer activity, about 0 neutral, <0 antagonist

SMILES | Difference
O=C([O-])CCCc1ccccc1.[Na+] [Sodium 4-phenylbutyrate] | 0.34
Cc1c(C(=O)Nc2ccc(N3C[C@@H](C)O[C@@H](C)C3)nc2)cccc1-c1ccc(OC(F)(F)F)cc1 [Sonidegib] | 0.17
CC(C)=CCC/C(C)=C/CC/C(C)=C/CC/C=C(\C)CC/C=C(\C)CCC=C(C)C [Squalene] | 0.29

same assay, conditions: complete vs cholesterol-free media; greater than 0 enhanced anti-cancer activity, about 0 neutral, below 0 antagonists

SMILES | Difference
O=C(O[C@H]1CN2CCC1CC2)N1CCc2ccccc2[C@@H]1c1ccccc1 [Solifenacin (hydrochloride)] | −0.31
O=C(O)[C@@H](S)[C@@H](S)C(=O)O [Succimer] | −0.45
